Experiment [1] has as its target T1, Amine oxidase [flavin-containing] B (Bos taurus, UniProt P56560).
T1 sequence (P56560 whole entry): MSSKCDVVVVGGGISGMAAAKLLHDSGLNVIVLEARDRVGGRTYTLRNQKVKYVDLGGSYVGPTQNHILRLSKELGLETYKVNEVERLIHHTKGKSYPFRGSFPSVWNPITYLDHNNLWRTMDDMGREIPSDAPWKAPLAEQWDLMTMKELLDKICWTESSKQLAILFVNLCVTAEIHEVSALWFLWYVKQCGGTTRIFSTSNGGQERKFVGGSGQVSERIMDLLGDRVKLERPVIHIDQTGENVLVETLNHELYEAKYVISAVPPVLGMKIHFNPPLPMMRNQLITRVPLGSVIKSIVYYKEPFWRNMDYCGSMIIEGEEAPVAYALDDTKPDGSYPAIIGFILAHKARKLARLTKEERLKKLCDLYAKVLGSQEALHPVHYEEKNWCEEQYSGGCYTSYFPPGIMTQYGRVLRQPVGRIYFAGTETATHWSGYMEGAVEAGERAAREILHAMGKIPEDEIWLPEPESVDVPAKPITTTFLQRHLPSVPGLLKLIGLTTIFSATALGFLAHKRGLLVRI
Put plainly: Tested for enzyme kinetic activity with purified bovine liver MAO B. Conditions: cattle.

The target in experiment [2] is T1, Amine oxidase [flavin-containing] B. The experiment in a line: Tested for enzyme affinity with purified bovine liver MAO B.
Experiment [3] has as its target T2, Amine oxidase [flavin-containing] A (Bos taurus, UniProt P21398).
T2 sequence (P21398 whole entry): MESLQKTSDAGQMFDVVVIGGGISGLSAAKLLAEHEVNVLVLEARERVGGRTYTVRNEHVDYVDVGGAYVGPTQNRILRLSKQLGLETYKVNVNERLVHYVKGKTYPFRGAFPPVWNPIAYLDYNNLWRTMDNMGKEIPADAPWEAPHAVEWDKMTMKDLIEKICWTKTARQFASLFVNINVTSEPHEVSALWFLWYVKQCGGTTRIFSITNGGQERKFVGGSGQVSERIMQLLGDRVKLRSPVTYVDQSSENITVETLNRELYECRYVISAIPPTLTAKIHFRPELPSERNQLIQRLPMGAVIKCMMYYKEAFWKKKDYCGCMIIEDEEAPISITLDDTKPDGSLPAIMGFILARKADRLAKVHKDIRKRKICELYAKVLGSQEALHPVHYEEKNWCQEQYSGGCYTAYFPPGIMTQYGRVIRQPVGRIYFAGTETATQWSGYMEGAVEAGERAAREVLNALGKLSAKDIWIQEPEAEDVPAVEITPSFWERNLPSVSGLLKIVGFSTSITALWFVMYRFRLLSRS
Put plainly: Tested for enzyme kinetic activity with purified bovine liver MAO A. The note with it: cattle.

The target of experiment [4] is T2, Amine oxidase [flavin-containing] A. The experiment in a line: Tested for enzyme affinity with purified bovine liver MAO A.

Turning to `NCCOCc1cccc(Cl)c1`, the results for the kinact in experiment [1] and in experiment [3] were 0.0117 s⁻¹ and 0.000467 s⁻¹, respectively. For the same molecule, the inhibitory constant (Ki) in experiment [2] amounted to 5 µM; in experiment [4], 340 µM.

These data come from ChEMBL document CHEMBL1127124, “Selective inactivation of monoamine oxidase B by aminoethyl 3-chlorobenzyl ether” (Bioorg Med Chem Lett, 1993).
